In patent publication US4772595A, “Synthetic virginiamycin M1 analogs” (Merck & Co., Inc., priority 1986, dated 1988):

Tests used:
Brain CCK Receptor = target: T1, Brain CCK Receptor (Cavia porcellus, UniProt H0VZC5); assay: Brain Cholecystokinin Receptor Binding Assay (cerebral cortex); conditions: guinea pig cerebral cortex, 125I-CCK-8, 25° C., 2 hours
T1 construct: The cerebral cortex was dissected and used as a receptor source; from tissue; host or cells: cerebral cortex membranes of male Hartley guinea pigs
T1 sequence (H0VZC5 1-426): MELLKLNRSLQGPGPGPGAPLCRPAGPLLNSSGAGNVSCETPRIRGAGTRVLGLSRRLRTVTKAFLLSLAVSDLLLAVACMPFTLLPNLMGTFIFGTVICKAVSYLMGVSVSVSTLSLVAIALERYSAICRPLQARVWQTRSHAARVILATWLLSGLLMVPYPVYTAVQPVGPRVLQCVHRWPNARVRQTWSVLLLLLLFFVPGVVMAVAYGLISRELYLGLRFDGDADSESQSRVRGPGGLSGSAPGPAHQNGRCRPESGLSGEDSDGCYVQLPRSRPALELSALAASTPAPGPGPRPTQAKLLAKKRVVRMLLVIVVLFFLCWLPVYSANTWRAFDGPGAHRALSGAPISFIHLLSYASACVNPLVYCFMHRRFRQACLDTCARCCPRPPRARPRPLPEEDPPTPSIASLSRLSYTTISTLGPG
Experimental: CCK-8 binding was performed according to the description for the pancreatic method, with modifications by Saito et al., J. Neurochem., 37, 483 (1981).
The brains from male Hartley guinea pigs (300-500 g) were removed and placed in ice-cold 50 mM Tris HCl plus 7.58 g/L Trizma-7.4 [pH 7.4 at 25° C.]. The cerebral cortex was dissected and used as a receptor source and each gram of fresh guinea pig brain tissue was homogenized in 10 ml of Tris/Trizma buffer, pH 7.4, with a Brinkmann polytron PT-10. The homogenates were centrifuged at 42,000×g for 15 minutes, then the resulting pellets were resuspended in 200 volumes of binding assay buffer (10 mM N-2-hydroxy-ethyl-piperazine-N'-2-ethane-sulfonic acid (HEPES), pH 7.7 at 25° C., MgCl2, 1 mM ethylene glycol-bis-(β-amino-ethyl-ether-N,N'-tetraacetic acid (EGTA), 0.4% BSA and 0.25 mg/ml bacitracin, pH 6.5).
The remainder of the binding assay method was as described for the pancreatic method, Example 6, except that the reaction mixtures were incubated at 25° C. for 2 hours before filtration and the filters were washed with HEPES buffer.

[1] = tested on: CCK and gastrin receptors; assay: Binding to both CCK and gastrin receptors (summary statement); conditions: summary in words
Experimental: Biological activity of virginiamycin M1 and the compounds of Formulae I, II, III and IV is determined by gastrin receptor binding, pancreas CCK receptor binding, brain CCK binding and microbial growth inhibition assays.

gram-positive bacteria = conditions: cited from earlier work
[2] = C-terminal octapeptide vs CCK-33; cited from earlier work
gastric acid secretion = conditions: cited from earlier work

| Molecule | IC50 (Brain CCK Receptor) [µM] | binding to CCK and gastrin receptors [1] | further results |
| --- | --- | --- | --- |
| CC1=C\C=C\C(=O)Cc2nc(co2)C(=O)N2CCC=C2C(=O)O[C@H](C(C)C)[C@H](C)/C=C/C(=O)NC\C=C\1 [Compound III] | 0.0133 | bind to both CCK and gastrin receptors | – |
| CC1=C\C=C\[C@H](O)Cc2nc(co2)C(=O)N2CCC=C2C(=O)O[C@H](C(C)C)[C@H](C)/C=C/C(=O)NC\C=C\1 [Compound II] | 0.0061 | bind to both CCK and gastrin receptors | – |
| CC1=C\C=C\[C@@H](O)Cc2nc(co2)C(=O)N2CCC=C2C(=O)O[C@H](C(C)C)[C@H](C)/C=C/C(=O)NC\C=C\1 [Compound I] | 0.0078 | bind to both CCK and gastrin receptors | – |
| CC1=C\CCC(=O)Cc2nc(co2)C(=O)N2CCC=C2C(=O)O[C@H](C(C)C)[C@H](C)/C=C/C(=O)NC\C=C\1 [IV] | 0.27 | bind to both CCK and gastrin receptors | – |
| CC1=C\[C@@H](O)CC(=O)Cc2nc(co2)C(=O)N2CCC=C2C(=O)O[C@H](C(C)C)[C@H](C)/C=C/C(=O)NC\C=C\1 [Virginiamycin M1] | 0.571 | bind to both CCK and gastrin receptors | antibacterial specificity (gram-positive bacteria): generally specific for gram-positive bacteria and prevent cell multiplication |
| C-terminal octapeptide: C-terminal octapeptide has the same efficacy as CCK-33 | – | – | efficacy relative to CCK-33 [2]: same efficacy as CCK-33; potency relative to CCK-33 [2]: approximately ten |
| Gastrin-17: 17-amino acid form of gastrin, C-terminal fragment of the 34-amino acid form | – | – | potency relative to Gastrin-13 (gastric acid secretion; Gastrin-17 vs Gastrin-13): 2.5 times; potency relative to Gastrin-34 (gastric acid secretion; Gastrin-17 vs Gastrin-34): 5 times |
